Measurements as given in ChEMBL document CHEMBL1201862, “PubChem BioAssay data set” (2004).
Activity calls are given as the source filed them.

Legend:
[1] = target: T1, Endoribonuclease toxin MazF (Escherichia coli K-12, UniProt P0AE70); test: MazF toxin RNase activators, dose response, biochemical, fluorescence, single-stranded RNA substrate, uHTS hits (AID 588481); assay type: functional
[2] = target: T1, Endoribonuclease toxin MazF; test: fluorescent RNA oligo signal without MazF, dose response, counter-screen for MazEF activator project, biochemical, fluorescence, single-stranded RNase substrate (AID 588502); assay type: functional
[3] = Luminescence Cell-Based Dose Retest to Confirm Inhibitors of Cancer Stem Cells. [Related pubchem assays (depositor defined):AID2717, AID2721]; assay type: functional; settings: Homo sapiens
Streptococcus [4] = test: Group A Streptococcus viability loss, dose response, counter-screen for streptokinase expression inhibitor project, luminescence, BacTiterGlo (AID 1915); assay type: functional, organism-based;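 further: potency for reduction of bacterial viability or growth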
[5] = tested on: Streptococcus sp. 'group A'; test: growth inhibition of control SK(-) GAS strain, dose response, counter-screen for streptokinase expression inhibitor project, luminescence, kanamycin, BacTiterGlo, confirmation (AID 1900); assay type: functional, organism-based
Streptokinase A = target: T2, Streptokinase A (Streptococcus pyogenes serotype M1, UniProt P10520); test: S. pyogenes streptokinase expression inhibitors, potency, dose response, plasminogen activation absorbance, OD405 (AID 1914); assay type: functional, Streptococcus pyogenes M1 GAS;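 further: secreted streptokinase activity via plasminogen activation per viability signal from cell pellet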
T2 sequence (P10520 whole entry): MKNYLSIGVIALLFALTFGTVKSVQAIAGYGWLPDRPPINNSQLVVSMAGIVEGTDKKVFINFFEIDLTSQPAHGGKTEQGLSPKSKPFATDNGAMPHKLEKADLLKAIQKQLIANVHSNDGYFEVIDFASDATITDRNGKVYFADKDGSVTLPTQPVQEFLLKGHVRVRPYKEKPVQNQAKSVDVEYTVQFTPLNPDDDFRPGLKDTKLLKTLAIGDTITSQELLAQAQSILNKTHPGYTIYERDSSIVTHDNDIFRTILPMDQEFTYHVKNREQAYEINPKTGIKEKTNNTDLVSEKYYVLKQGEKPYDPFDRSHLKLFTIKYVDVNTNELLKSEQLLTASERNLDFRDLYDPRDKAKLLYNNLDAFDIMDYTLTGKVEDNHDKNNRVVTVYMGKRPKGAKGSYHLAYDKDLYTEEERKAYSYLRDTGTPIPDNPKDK

Streptococcus [6] = test: Luminescence Microorganism-Based Dose Response Follow up to Identify Compounds Cytotoxic to Streptococcus. [Related pubchem assays: 1677 (Project Summary), 1915, 1914, 1902 (Retest at Dose), 1900 (Counter Screen), 1662 (Primary HTS)]; assay type: functional, organism-based
[7] = cytotoxicity in HMLE control line with eGFP shRNA, dose response, counter-screen for HMLE_sh_ECad selective toxicity project, cell-based, HMLE_sh_eGFP, luminescence (AID 463074); assay type: functional, Homo sapiens;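 further: HMLE human mammary epithelial cells expressing control shRNA against eGFP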
BJ [8] = test: cytotoxicity toward BJ-TERT fibroblasts, dose response, cell-based, RAS-independent, luminescence (AID 1933); assay type: functional; settings: Homo sapiens
INS1 = test: beta cell apoptosis inhibitors, cytokine rescue, dose response, luminescence, retest (AID 449756); assay type: functional, cell-based; settings: Rattus norvegicus;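 further: cell death triggered by IL-1 beta plus TNF-alpha plus IFN-gamma mixture; protective hits raise ATP signal compared with cytokine alone wells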
[9] = C. albicans growth with fluconazole, confirmation, fluorescence, retest (AID 2467); assay type: functional, cell-based
BJ [10] = test: cells; assay type: functional, cell-based; settings: Homo sapiens
[11] = NIH-3T3 fibroblast cytotoxicity, dose response, cytotoxicity control, cell-based, fluorescence, Alamar Blue, secondary assay (AID 2327); assay type: functional;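 further: NIH-3T3 mouse fibroblasts cultured with fluconazole at 8 µg/mL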
[12] = cytotoxicity in HEK-293T cells, dose response, cytotoxicity control for BCR NF-kB inhibitor project, luminescence, B-cell screen hits (AID 489021); assay type: functional, cell-based;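 further: HEK-293T cells carrying an NF-kB luciferase reporter; cells exposed to compound for about 14 hours before viability readout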
[13] = cytotoxicity toward DRD oncogenic fibroblasts, dose response, cell-based, non-viral oncogenic, luminescence (AID 1934); assay type: functional; settings: Homo sapiens
[14] = target: T3, Microphthalmia-associated transcription factor (Homo sapiens, UniProt O75030); test: TRPM1 promoter luciferase signal decrease, dose response, MITF inhibitor project, cell-based, SK-MEL-5, cherry-picked, set 3 (AID 493073); assay type: functional
T3 sequence (O75030 whole entry): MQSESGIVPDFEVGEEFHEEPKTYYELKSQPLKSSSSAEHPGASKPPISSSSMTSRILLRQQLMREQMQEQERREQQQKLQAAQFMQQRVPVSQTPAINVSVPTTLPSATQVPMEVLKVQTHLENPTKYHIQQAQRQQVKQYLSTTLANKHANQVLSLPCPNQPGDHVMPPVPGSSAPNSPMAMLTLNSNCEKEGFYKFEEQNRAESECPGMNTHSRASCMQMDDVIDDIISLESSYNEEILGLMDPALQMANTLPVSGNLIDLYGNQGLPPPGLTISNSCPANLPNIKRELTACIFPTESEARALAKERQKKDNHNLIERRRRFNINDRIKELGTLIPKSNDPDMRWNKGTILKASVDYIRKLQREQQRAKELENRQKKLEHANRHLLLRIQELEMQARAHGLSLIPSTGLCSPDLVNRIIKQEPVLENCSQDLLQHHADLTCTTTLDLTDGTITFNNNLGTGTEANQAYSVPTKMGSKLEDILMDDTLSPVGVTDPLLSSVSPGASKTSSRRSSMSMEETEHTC

BJ [15] = test: cytotoxicity toward BJ-TERT-LT-ST fibroblasts, dose response, cell-based, RAS-independent, luminescence (AID 1935); assay type: functional; settings: Homo sapiens;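 further: BJ fibroblasts immortalized with TERT plus LT and ST oncogenes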
A-375 = test: A375 melanoma cell viability reduction, dose response, counter-screen for MITF modulator project, cherry-pick samples, set 2 (AID 540335); assay type: functional, cell-based; settings: Homo sapiens
Escherichia coli = test: microbe, parasite or virus in culture

T1 sequence (P0AE70 whole entry): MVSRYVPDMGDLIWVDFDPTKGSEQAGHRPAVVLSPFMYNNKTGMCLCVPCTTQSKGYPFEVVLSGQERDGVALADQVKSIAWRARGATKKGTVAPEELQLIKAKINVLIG

## C=CCn1c(=N)c(S(=O)(=O)c2ccc(C)c(C)c2)cc2c(=O)n3ccccc3nc21
[1]
  EC50: 31.9 µM (inactive)
[2]
  EC50: 52.2 µM (inactive)

## CC1CC(C)CN(c2ncc3c(n2)CC(c2ccccc2Cl)CC3=O)C1 (stereo not given)
[3]
  AC50: 4.15 µM (active)
Streptococcus [4]
  EC50: > 150 µM (not active)
[5]
  EC50: 7.25 µM (active)
Streptokinase A
  EC50: 10.2 µM (active)
Streptococcus [6]
  EC50: > 500 µM (not active)
[7]
  AC50: 30.2 µM (active)

## Cc1ccc(C(=O)Cn2cc(-c3ccc(C)cc3)[n+]3c2CCCCC3)cc1
BJ [8]
  EC50: 17.3 µM (active)
INS1
  AC50: 1.3 µM (active)
[9]
  EC50: 1.32 µM (active)
BJ [10]
  EC50: > 150 µM (not active)
[11]
  EC50: > 150 µM (inactive)
[12]
  IC50: > 80 µM (inactive)
[13]
  EC50: 85.7 µM (active)
[14]
  AC50: 3.63 µM (active)
BJ [15]
  EC50: > 150 µM (not active)
A-375
  AC50: 40.5 µM (active)

## COc1ccc(-c2cc([C@H]3[C@@H]4C=CCC[C@@]4(C)C(=O)N3Cc3ccccc3)ccc2F)cc1
[3]
  AC50: 3.42 µM (active)
Escherichia coli
  AC50: 121 µM (active)
